Results taken from PMC8550792, “Evolution of kinase polypharmacology across HSP90 drug discovery” (Cell Chemical Biology, 2021).
Values joined by “and” are separate entries in the source; they are usually repeats but may differ in a detail not shown here. Identical values can stand only once.

Columns and labels:
c-Src = molecular target: T1, c-Src (Homo sapiens, UniProt P12931); experiment: HotSpot in vitro kinase radiometric assay; format: biochemical
T1 construct: purchased Reaction Biology (HotSpot contract assay)
Outline: (§1)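 Radiometric catalytic assay: compounds incubated with kinase, substrate, cofactors and ³²P- or ³³P-γ-ATP. Reactions spotted onto filter paper that binds the labeled product, giving a direct measure of inhibition of catalytic activity without modified substrates or coupling enzymes.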

PDK4/PDKH4 = molecular target: T2, PDK4/PDKH4 (Homo sapiens, UniProt Q16654); experiment: HotSpot in vitro kinase radiometric assay; format: biochemical
T2 construct: purchased Reaction Biology (HotSpot contract assay)
Outline: as §1

BLK = molecular target: T3, BLK (Homo sapiens, UniProt P51451); experiment: HotSpot in vitro kinase radiometric assay; format: biochemical
T3 construct: purchased Reaction Biology (HotSpot contract assay)
Outline: as §1

LYN B = molecular target: T4, LYN B (Homo sapiens, UniProt P07948); experiment: HotSpot in vitro kinase radiometric assay; format: biochemical
T4 construct: purchased Reaction Biology (HotSpot contract assay)
Outline: as §1

PDK2/PDHK2 = molecular target: T5, PDK2/PDHK2 (Homo sapiens, UniProt Q15119); experiment: HotSpot in vitro kinase radiometric assay; format: biochemical
T5 construct: purchased Reaction Biology (HotSpot contract assay)
Outline: as §1

PEAK1 = molecular target: T6, PEAK1 (Homo sapiens, UniProt Q9H792); experiment: HotSpot in vitro kinase radiometric assay; format: biochemical
T6 construct: purchased Reaction Biology (HotSpot contract assay)

HSP90AA1 = conditions: cited from earlier work
HSP90AB1 = tested on: HSP90AB1; set-up: method as in ChEMBL23 (accessed: 23/08/2018); conditions: average of reported values; ref ChEMBL23 (accessed: 23/08/2018); cited from earlier work
DDR1 = DDR1 (Homo sapiens, UniProt Q08345); experiment: HotSpot in vitro kinase radiometric assay; format: biochemical; set-up: purchased Reaction Biology (HotSpot contract assay)
ABL2/ARG = molecular target: T7, ABL2/ARG (Homo sapiens, UniProt P42684); experiment: HotSpot in vitro kinase radiometric assay; format: biochemical
T7 construct: purchased Reaction Biology (HotSpot contract assay)

ABL1 = ABL1 (Homo sapiens, UniProt P00519); experiment: HotSpot in vitro kinase radiometric assay; format: biochemical; set-up: purchased Reaction Biology (HotSpot contract assay)
TRKC = molecular target: T8, TRKC (Homo sapiens, UniProt Q16288); experiment: HotSpot in vitro kinase radiometric assay; format: biochemical
T8 construct: purchased Reaction Biology (HotSpot contract assay)

YES/YES1 = molecular target: T9, YES/YES1 (Homo sapiens, UniProt P07947); experiment: HotSpot in vitro kinase radiometric assay; format: biochemical
T9 construct: purchased Reaction Biology (HotSpot contract assay)

PASK = molecular target: T10, PASK (Homo sapiens, UniProt Q96RG2); experiment: HotSpot in vitro kinase radiometric assay; format: biochemical
T10 construct: purchased Reaction Biology (HotSpot contract assay)
Outline: as §1

TRKA = molecular target: T11, TRKA (Homo sapiens, UniProt P04629); experiment: HotSpot in vitro kinase radiometric assay; format: biochemical
T11 construct: purchased Reaction Biology (HotSpot contract assay)
Outline: as §1

LCK = molecular target: T12, LCK (Homo sapiens, UniProt P06239); experiment: HotSpot in vitro kinase radiometric assay; format: biochemical
T12 construct: purchased Reaction Biology (HotSpot contract assay)

ABL1, sequence (P00519 whole entry): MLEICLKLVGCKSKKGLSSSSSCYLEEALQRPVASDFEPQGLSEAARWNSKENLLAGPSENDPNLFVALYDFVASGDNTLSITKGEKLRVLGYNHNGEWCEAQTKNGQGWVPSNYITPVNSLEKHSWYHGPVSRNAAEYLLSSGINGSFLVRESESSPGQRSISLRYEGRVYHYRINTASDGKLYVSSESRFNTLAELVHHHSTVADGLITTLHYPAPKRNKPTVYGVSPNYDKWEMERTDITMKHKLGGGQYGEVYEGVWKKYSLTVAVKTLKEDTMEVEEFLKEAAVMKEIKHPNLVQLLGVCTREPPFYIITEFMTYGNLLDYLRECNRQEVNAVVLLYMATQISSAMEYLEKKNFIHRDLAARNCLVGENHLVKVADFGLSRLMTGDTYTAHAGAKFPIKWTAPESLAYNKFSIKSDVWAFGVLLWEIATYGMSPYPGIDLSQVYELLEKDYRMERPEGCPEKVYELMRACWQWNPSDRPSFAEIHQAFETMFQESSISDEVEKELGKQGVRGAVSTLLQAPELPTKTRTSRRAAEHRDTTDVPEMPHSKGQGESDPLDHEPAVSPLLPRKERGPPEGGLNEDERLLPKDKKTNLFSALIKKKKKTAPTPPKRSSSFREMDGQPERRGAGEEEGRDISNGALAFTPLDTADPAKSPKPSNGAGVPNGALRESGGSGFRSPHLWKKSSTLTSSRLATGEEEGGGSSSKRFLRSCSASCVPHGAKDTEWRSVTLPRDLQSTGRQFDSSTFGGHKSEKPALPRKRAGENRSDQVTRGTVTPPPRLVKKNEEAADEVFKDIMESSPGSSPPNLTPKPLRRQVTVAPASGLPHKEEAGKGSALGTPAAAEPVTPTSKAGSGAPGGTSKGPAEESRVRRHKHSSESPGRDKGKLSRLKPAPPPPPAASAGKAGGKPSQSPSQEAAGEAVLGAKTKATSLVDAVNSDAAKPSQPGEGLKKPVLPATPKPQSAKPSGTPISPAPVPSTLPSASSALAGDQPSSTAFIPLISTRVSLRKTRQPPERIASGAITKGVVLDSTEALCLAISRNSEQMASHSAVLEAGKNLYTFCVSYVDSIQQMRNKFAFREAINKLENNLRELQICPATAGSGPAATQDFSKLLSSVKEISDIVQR
T1 sequence (P12931 whole entry): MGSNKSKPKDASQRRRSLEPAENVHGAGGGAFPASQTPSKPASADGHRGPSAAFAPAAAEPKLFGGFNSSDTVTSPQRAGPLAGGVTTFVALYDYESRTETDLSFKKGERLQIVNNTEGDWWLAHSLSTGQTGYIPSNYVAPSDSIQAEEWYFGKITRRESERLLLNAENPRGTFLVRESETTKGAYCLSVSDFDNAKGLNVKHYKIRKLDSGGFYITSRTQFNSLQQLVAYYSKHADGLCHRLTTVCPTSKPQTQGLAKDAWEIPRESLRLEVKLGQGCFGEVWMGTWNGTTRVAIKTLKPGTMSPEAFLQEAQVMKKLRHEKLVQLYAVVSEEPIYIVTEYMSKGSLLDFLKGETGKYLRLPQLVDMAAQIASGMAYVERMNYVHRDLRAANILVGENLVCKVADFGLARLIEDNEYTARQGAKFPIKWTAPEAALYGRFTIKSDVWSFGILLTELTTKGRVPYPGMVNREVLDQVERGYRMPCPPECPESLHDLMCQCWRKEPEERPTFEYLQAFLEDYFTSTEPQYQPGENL
T11 sequence (P04629 33-796): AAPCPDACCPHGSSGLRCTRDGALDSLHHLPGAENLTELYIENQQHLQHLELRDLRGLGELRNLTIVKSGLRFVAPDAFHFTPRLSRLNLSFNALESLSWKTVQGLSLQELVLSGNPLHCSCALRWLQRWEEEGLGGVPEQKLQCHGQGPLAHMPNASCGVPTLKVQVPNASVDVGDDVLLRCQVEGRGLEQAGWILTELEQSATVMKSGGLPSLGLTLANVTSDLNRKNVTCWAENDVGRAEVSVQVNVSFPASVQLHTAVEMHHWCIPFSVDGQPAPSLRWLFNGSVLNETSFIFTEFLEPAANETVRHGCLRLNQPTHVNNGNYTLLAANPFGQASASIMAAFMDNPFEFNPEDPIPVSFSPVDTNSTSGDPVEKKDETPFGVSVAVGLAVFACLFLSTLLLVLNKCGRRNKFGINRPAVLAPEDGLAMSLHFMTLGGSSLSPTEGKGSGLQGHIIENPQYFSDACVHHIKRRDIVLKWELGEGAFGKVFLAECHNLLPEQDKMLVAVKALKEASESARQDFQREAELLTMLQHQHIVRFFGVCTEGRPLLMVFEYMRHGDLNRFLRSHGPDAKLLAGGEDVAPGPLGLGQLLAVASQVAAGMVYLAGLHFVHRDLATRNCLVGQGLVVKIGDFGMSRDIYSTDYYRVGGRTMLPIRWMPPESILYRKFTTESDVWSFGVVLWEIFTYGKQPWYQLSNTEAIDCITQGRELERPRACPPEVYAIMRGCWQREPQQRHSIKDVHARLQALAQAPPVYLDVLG
T6 sequence (Q9H792 whole entry): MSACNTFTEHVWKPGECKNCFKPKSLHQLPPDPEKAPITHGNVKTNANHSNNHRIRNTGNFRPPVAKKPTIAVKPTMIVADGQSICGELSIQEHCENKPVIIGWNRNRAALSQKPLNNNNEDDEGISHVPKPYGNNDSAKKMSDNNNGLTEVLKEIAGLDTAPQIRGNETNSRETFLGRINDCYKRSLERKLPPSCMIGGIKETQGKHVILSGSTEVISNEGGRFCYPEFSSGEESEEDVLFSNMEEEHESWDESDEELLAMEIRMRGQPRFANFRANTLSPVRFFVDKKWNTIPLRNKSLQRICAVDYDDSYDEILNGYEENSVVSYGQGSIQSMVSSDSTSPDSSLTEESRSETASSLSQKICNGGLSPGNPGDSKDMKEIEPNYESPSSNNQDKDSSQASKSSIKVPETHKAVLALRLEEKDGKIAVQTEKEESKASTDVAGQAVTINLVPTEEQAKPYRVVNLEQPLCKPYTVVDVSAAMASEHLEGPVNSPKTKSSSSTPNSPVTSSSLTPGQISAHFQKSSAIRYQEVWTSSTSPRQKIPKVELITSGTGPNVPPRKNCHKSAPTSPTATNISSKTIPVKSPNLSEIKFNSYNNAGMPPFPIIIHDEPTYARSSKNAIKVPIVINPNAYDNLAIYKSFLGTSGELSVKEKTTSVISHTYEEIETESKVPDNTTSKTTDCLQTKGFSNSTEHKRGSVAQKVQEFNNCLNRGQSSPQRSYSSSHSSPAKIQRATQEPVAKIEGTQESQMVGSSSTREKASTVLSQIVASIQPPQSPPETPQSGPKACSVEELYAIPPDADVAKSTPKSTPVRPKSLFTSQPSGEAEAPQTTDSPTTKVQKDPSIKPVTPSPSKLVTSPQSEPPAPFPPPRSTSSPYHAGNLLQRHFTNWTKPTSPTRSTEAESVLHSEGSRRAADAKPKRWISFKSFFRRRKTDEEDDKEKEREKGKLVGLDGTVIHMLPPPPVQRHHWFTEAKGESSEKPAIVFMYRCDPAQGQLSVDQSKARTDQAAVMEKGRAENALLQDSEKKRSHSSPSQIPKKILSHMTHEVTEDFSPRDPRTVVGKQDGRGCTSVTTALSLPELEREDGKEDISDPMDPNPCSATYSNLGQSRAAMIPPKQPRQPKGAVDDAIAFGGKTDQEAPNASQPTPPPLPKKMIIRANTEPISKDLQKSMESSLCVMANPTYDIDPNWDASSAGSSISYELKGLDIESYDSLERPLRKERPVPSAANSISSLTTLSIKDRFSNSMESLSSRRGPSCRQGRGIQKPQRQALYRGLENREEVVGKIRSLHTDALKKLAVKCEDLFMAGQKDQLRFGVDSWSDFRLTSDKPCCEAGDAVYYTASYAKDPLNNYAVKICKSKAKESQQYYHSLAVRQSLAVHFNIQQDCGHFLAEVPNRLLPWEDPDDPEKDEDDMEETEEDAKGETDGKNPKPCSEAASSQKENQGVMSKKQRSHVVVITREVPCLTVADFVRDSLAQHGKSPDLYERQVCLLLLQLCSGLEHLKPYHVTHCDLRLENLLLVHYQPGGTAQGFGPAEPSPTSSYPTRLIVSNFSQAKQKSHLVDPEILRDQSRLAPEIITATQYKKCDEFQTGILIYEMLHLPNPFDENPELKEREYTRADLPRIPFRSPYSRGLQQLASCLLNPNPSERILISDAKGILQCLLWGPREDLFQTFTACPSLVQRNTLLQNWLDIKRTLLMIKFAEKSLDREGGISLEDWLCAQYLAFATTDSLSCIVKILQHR
T2 sequence (Q16654 whole entry): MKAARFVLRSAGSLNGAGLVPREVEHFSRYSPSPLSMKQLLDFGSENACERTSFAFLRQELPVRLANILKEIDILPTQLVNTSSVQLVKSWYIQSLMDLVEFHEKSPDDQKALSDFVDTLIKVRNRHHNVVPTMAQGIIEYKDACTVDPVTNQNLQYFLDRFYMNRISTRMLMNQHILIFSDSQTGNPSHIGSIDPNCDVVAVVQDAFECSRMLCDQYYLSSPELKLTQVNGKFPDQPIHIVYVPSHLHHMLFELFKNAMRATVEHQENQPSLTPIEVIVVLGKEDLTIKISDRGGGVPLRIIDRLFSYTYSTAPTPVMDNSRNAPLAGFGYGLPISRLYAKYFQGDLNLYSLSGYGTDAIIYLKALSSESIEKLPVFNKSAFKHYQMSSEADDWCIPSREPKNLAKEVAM
T3 sequence (P51451 whole entry): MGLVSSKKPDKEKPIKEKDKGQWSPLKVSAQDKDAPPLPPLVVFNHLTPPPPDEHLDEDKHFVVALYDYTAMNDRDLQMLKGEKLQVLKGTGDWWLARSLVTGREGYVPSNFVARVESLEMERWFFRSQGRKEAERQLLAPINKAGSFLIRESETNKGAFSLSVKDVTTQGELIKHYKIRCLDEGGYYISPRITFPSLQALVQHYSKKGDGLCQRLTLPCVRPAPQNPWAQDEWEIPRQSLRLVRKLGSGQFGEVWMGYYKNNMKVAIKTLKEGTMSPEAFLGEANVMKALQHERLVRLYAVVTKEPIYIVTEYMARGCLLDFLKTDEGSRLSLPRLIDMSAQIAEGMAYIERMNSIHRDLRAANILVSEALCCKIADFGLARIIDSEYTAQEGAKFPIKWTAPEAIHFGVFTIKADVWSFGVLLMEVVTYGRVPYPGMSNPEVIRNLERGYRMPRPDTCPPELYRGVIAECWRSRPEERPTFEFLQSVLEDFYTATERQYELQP

% Enzyme Activity (relative to DMSO controls) (c-Src; c-Src, 10uM, ATP 15 uM, Data 1, Data 2): 103.77% and 68.69%
inhibition at 10 µM (c-Src; read-out: % inhibition at 10 uM: SRC, 10 μM, Fig 6C median ± standard deviation (n = 2)): 14 ± 25%
% Enzyme Activity (relative to DMSO controls) (PDK4/PDKH4; PDK4/PDKH4, 10uM, ATP 30 uM, Data 1, Data 2): -0.13% and 4.42%
inhibition at 10 µM (PDK4/PDKH4; read-out: % inhibition at 10 uM: PDK4, 10 μM, Fig 6C median ± standard deviation (n = 2)): 98 ± 3%
% Enzyme Activity (relative to DMSO controls) (BLK; BLK, 10uM, ATP 10 uM, Data 1, Data 2): 99.82%
remaining activity at 10 µM (BLK; BLK, 10uM, ATP 10 uM, Data 1, Data 2, read-out: % Enzyme Activity (relative to DMSO controls)): 94%
inhibition at 10 µM (BLK; read-out: % inhibition at 10 uM: BLK, 10 μM, Fig 6C median ± standard deviation (n = 2)): 3 ± 4%
% Enzyme Activity (relative to DMSO controls) (LYN B; LYN B, 10uM, ATP 20 uM, Data 1, Data 2): 103.45%
remaining activity at 10 µM (LYN B; LYN B, 10uM, ATP 20 uM, Data 1, Data 2, read-out: % Enzyme Activity (relative to DMSO controls)): 105%
inhibition at 10 µM (LYN B; read-out: % inhibition at 10 uM: LYN B, 10 μM, Fig 6C median ± standard deviation (n = 2)): -4 ± 1%
% Enzyme Activity (relative to DMSO controls) (PDK2/PDHK2; PDK2/PDHK2, 10uM, ATP 15 uM, Data 1, Data 2): 9.11% and 0.34%
inhibition at 10 µM (PDK2/PDHK2; read-out: % inhibition at 10 uM: PDK2, 10 μM, Fig 6C median ± standard deviation (n = 2)): 95 ± 6%
% Enzyme Activity (relative to DMSO controls) (PEAK1; PEAK1, 10uM, ATP 30 uM, Data 1, Data 2): 104.61%
remaining activity at 10 µM (PEAK1; PEAK1, 10uM, ATP 30 uM, Data 1, Data 2, read-out: % Enzyme Activity (relative to DMSO controls)): 105%
inhibition at 10 µM (PEAK1; read-out: % inhibition at 10 uM: PEAK1, 10 μM, Fig 6C median ± standard deviation (n = 2)): -5 ± 1%
% Enzyme Activity (relative to DMSO controls) (DDR1; DDR1, 10uM, ATP 100 uM, Data 1, Data 2): 93.93%
remaining activity at 10 µM (DDR1; DDR1, 10uM, ATP 100 uM, Data 1, Data 2, read-out: % Enzyme Activity (relative to DMSO controls)): 90.3%
inhibition at 10 µM (DDR1; read-out: % inhibition at 10 uM: DDR1, 10 μM, Fig 6C median ± standard deviation (n = 2)): 8 ± 3%
% Enzyme Activity (relative to DMSO controls) (ABL2/ARG; ABL2/ARG, 10uM, ATP 30 uM, Data 1, Data 2): 107.1%
remaining activity at 10 µM (ABL2/ARG; ABL2/ARG, 10uM, ATP 30 uM, Data 1, Data 2, read-out: % Enzyme Activity (relative to DMSO controls)): 99.9%
inhibition at 10 µM (ABL2/ARG; read-out: % inhibition at 10 uM: ABL2, 10 μM, Fig 6C median ± standard deviation (n = 2)): -4 ± 5%
% Enzyme Activity (relative to DMSO controls) (ABL1; ABL1, 10uM, ATP 40 uM, Data 1, Data 2): 99.15%
remaining activity at 10 µM (ABL1; ABL1, 10uM, ATP 40 uM, Data 1, Data 2, read-out: % Enzyme Activity (relative to DMSO controls)): 96%
inhibition at 10 µM (ABL1; read-out: % inhibition at 10 uM: ABL1, 10 μM, Fig 6C median ± standard deviation (n = 2)): 2 ± 2%
% Enzyme Activity (relative to DMSO controls) (TRKC; TRKC, 10uM, ATP 100 uM, Data 1, Data 2): 86.46%
remaining activity at 10 µM (TRKC; TRKC, 10uM, ATP 100 uM, Data 1, Data 2, read-out: % Enzyme Activity (relative to DMSO controls)): 94.2%
inhibition at 10 µM (TRKC; read-out: % inhibition at 10 uM: TRKC, 10 μM, Fig 6C median ± standard deviation (n = 2)): 10 ± 5%
% Enzyme Activity (relative to DMSO controls) (YES/YES1; YES/YES1, 10uM, ATP 50 uM, Data 1, Data 2): 96.18%
remaining activity at 10 µM (YES/YES1; YES/YES1, 10uM, ATP 50 uM, Data 1, Data 2, read-out: % Enzyme Activity (relative to DMSO controls)): 102%
inhibition at 10 µM (YES/YES1; read-out: % inhibition at 10 uM: YES, 10 μM, Fig 6C median ± standard deviation (n = 2)): 1 ± 4%
% Enzyme Activity (relative to DMSO controls) (PASK; PASK, 10uM, ATP 50 uM, Data 1, Data 2): 102.75%
remaining activity at 10 µM (PASK; PASK, 10uM, ATP 50 uM, Data 1, Data 2, read-out: % Enzyme Activity (relative to DMSO controls)): 109%
inhibition at 10 µM (PASK; read-out: % inhibition at 10 uM: PASK, 10 μM, Fig 6C median ± standard deviation (n = 2)): -6 ± 5%
% Enzyme Activity (relative to DMSO controls) (TRKA; TRKA, 10uM, ATP 100 uM, Data 1, Data 2): 96.8%
remaining activity at 10 µM (TRKA; TRKA, 10uM, ATP 100 uM, Data 1, Data 2, read-out: % Enzyme Activity (relative to DMSO controls)): 100%
inhibition at 10 µM (TRKA; read-out: % inhibition at 10 uM: TRKA, 10 μM, Fig 6C median ± standard deviation (n = 2)): 2 ± 2%
% Enzyme Activity (relative to DMSO controls) (LCK; LCK, 10uM, ATP 15 uM, Data 1, Data 2): 102.22%
remaining activity at 10 µM (LCK; LCK, 10uM, ATP 15 uM, Data 1, Data 2, read-out: % Enzyme Activity (relative to DMSO controls)): 111%
inhibition at 10 µM (LCK; read-out: % inhibition at 10 uM: LCK, 10 μM, Fig 6C median ± standard deviation (n = 2)): -6 ± 6%
Structure (SMILES): CCNC(=O)c1noc(-c2cc(Cl)c(O)cc2O)c1-c1ccc(OC)cc1 [VER-50589]
IC50 (HSP90AA1; Fig 6C, IC50 against HSP90 shown for comparison, source not given): 21 nM
pActivity, HSP90AA1 (HSP90AA1; average of reported values, ref ChEMBL23 (accessed: 23/08/2018)): 7.55
pActivity, HSP90AB1 (HSP90AB1): 7.55
